The source of these data is US11975072B2, “Pyropheophorbide conjugate and use thereof in the treatment of cancer and as a fluorescent marker” (INSERM (INSTITUT NATIONAL DE LA SANTÉ ET DE LA RECHERCHE …, priority 2017, dated 2024).

A short description of data set [1]: Photophysical properties (absorption, fluorescence, singlet oxygen production, lifetimes) in ethanol. Format: physicochemical. To be noted: for ϕF fluorescence quantum yield: ±0.02, reference tetraphenylporphyrin in toluene; for ϕΔ quantum yield (singlet oxygen production): ±0.05, reference Rose Bengal in ethanol; for τF fluorescence lifetime: ±0.1 ns; for τΔ singlet oxygen lifetime: ±1 μs. The method, then:
The absorption spectra were measured with a UV-3600 double beam UV-visible spectrophotometer (Shimadzu, Marne La Vallée, France). The fluorescence spectra were measured with a Fluorolog FL3-222 spectrofluorimeter (Horiba Jobin Yvon, Longjumeau, France) equipped with a 450 W xenon arc lamp, with a thermostated (25° C.) cuvette holder compartment, with an R928 UV-visible photomultiplier (Hamamatsu, Japan) and with a liquid nitrogen-cooled InGaAs infrared detector (DSS-16A020L Electro-Optical System Inc, Phoenixville, PA, USA). The excitation beam is diffracted by a SPEX double-grating monochromator (1200 lines/mm blazed at 330 nm). The fluorescence was measured by the UV-visible detector via the SPEX double-grating emission monochromator (1200 lines/mm blazed at 500 nm). The production of singlet oxygen was measured by the infrared detector via the SPEX double-grating emission monochromator (600 lines/mm blazed at 1 μm) and a high-pass filter at 780 nm. All the spectra were measured using 4-face quartz cuvettes. All the emission spectra (singlet-oxygen fluorescence and luminescence) were related back to the same absorbance (less than 0.2) with the lamp and photomultiplier corrections.
The fluorescence quantum yield was determined by equation (1):
[formula] where Φf and Φfo, If and Ifo, OD and ODo, n and no, are the quantum yields, the fluorescence intensities, the optical densities, and the refractive indices of the sample and of the reference respectively.
The reference used for the calculation of the fluorescence quantum yield is tetraphenylporphyrin in toluene with a φfo of 0.11.
The quantum yield for singlet oxygen production is determined by equation (2):
[formula] where ΦΔ and ΦΔo, I and Io, OD and ODo are the quantum yields for singlet oxygen production, the singlet oxygen production intensities and the optical densities of the sample and of the reference respectively.
The reference used for the calculation of the quantum yield for singlet oxygen production is Rose Bengal in ethanol with a φΔo of 0.68.
The fluorescence lifetime experiments were carried out using, for the excitation, a pulsed laser diode emitting at 407 nm (LDH-P-C-400M, FWHM<70 ps, 1 MHz) coupled to a PDL 800-D pulse generator (PicoQuant GmbH, Berlin, Germany) and, for the detection, an SPCM-AQR-15 avalanche photodiode (EG & G, Vaudreuil, Canada) coupled to a high-pass filter at 650 nm.
The acquisition was carried out using a PicoHarp 300 module linked to a PHR-800 4-channel router (PicoQuant GmbH, Berlin, Germany). The fluorescence declines were recorded using the single photon counting method (Time Correlated Single Photon Counting TCSPC). The data were collected until 1000 accumulated counts in a channel were obtained, then analyzed using the TCSPC Fluofit software (PicoQuant GmbH, Berlin, Germany) based on an iterative reconvolution using a Levensberg-Marquandt algorithm which allows multiexponential declines to be obtained.
The singlet oxygen lifetime measurements were carried out with a Tempro-01 spectrophotometer (Horiba Jobin Yvon, Longjumeau, France) composed of a SpectraLED-415 pulsed excitation diode emitting at 415 nm, of a cuvette holder compartment, of an emission monochromator of Seya-Namioka type (600-2000 nm) and of an H10330-45 thermoelectrically regulated near infrared photomultiplier tube (Hamamatsu, Japan). The assembly is controlled by the FluoroHub-B counting module and the DataStation and DAS6 software (Horiba Jobin Yvon).
The emission spectra and the phosphorescence lifetime measurements were carried out with a Fluorolog FL3-22 spectrofluorimeter (Horiba Jobin Yvon, Longjumeau, France) equipped with a 450 W continuous xenon lamp, with a xenon flash lamp, with a thermostated (25° C.) cuvette holder compartment and with an R928 UV-visible photomultiplier (Hamamatsu, Japan). The assembly is controlled by the FluoroHub-B counting module. […]

For data set [2] the following is noted: in ethanol; cited from earlier work.

On to pheophorbide-a [Pheo(a)-COOH], for which, in data set [1], the “εQI (molar extinction coefficient, QI band)” value was 32 537 L · mol^−1 · cm^−1; the “εsoret band (molar extinction coefficient)” value was 69 663 L · mol^−1 · cm^−1; the “λQI (QI band absorption peak)” value is listed as 667 nm; the “ϕF fluorescence quantum yield” value is given as 0.44. For the same compound, in data set [1], the “ϕΔ quantum yield (singlet oxygen production)” value came to 0.52, the τF fluorescence lifetime worked out at 5.7 ns and the “τΔ singlet oxygen lifetime” value amounted to 12 μs.

As for pyropheophorbide-a [Pyro(a)-COOH], in data set [1], the “εQI (molar extinction coefficient, QI band)” value was 33 265 L · mol^−1 · cm^−1; the “εsoret band (molar extinction coefficient)” value is given as 76 326 L · mol^−1 · cm^−1; the “λQI (QI band absorption peak)” value is 668 nm; the “ϕF fluorescence quantum yield” value is listed as 0.34. In data set [1], the “ϕΔ quantum yield (singlet oxygen production)” value was 0.52, the τF fluorescence lifetime is recorded as 6.7 ns and the “τΔ singlet oxygen lifetime” value stood at 13 μs.

For the compound `O=C([O-])c1c(Cl)c(Cl)c(Cl)c(Cl)c1-c1c2cc(I)c(=O)c(I)c-2oc2c(I)c([O-])c(I)cc12.[Na+].[Na+]` [Rose Bengal], the “φΔo quantum yield for singlet oxygen production of the reference” value in data set [2] is 0.68.
